Experiments:
Assay type in all cases: cell-based
HER2 WT [1] = biological target: T1, HER2 WT (Homo sapiens, UniProt P04626); experiment: BaF3 cell proliferation assay, HER2 WT (Table B); conditions: potency code, 3 days, CellTiterGlo, read-out: HER2 WT (Activity for Inhibiting HER2)
EGFR NPH [2] = biological target: T2, EGFR NPH (Homo sapiens, UniProt P00533, DUP771-773); experiment: Activity for inhibiting EGFR (Table A), EGFR NPH; conditions: read-out: EGFR NPH, potency code (IC50)
T2 construct: expressed in transfected cells; host or cells: BaF3 (murine pro-B), retroviral pMXs-IRES-Blasticidin

EGFR V3 [3] = biological target: T3, EGFR V3 (Homo sapiens, UniProt P00533, DELINS30-297G); experiment: BaF3 cell proliferation assay, EGFR V3 (Table A); conditions: potency code, 3 days, CellTiterGlo, read-out: EGFR V3 (Activity for Inhibiting EGFR)
T3 construct: expressed in transfected cells; host or cells: BaF3 (murine pro-B), retroviral pMXs-IRES-Blasticidin
Procedure, shortened: (§1)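 EC50 values come from proliferation of IL-3-independent BaF3 lines. These lines were made by two spin infections with retrovirus encoding each mutant, plus polybrene (8 μg/ml). They then underwent one week of 10 μg/ml blasticidin selection and were removed from IL-3.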

EGFR V3 [4] = biological target: T3, EGFR V3; experiment: Activity for inhibiting EGFR (Table A), EGFR V3 (EGFR-Viii); conditions: read-out: EGFR V3, potency code (IC50)
EGFR SVD [5] = biological target: T4, EGFR SVD (Homo sapiens, UniProt P00533, DUP768-770); experiment: BaF3 cell proliferation assay, EGFR SVD (Table A); conditions: potency code, 3 days, CellTiterGlo, read-out: EGFR SVD (Activity for Inhibiting EGFR)
T4 construct: expressed in transfected cells; host or cells: BaF3 (murine pro-B), retroviral pMXs-IRES-Blasticidin
Procedure, shortened: as §1

HER2 YVMA [6] = biological target: T5, HER2 YVMA (Homo sapiens, UniProt P04626, INS775YVMA); experiment: BaF3 cell proliferation assay, HER2 YVMA (Table B); conditions: potency code, 3 days, CellTiterGlo, read-out: HER2 YVMA (Activity for Inhibiting HER2)
T5 construct: expressed in transfected cells; host or cells: BaF3 (murine pro-B)

EGFR NPH [7] = biological target: T2, EGFR NPH; experiment: BaF3 cell proliferation assay, EGFR NPH (Table A); conditions: potency code, 3 days, CellTiterGlo, read-out: EGFR NPH (Activity for Inhibiting EGFR)
Procedure, shortened: as §1

HER2 YVMA [8] = biological target: T5, HER2 YVMA; experiment: Activity for inhibiting HER2 (Table B), HER2 YVMA; conditions: read-out: HER2 YVMA, potency code (IC50)
Procedure: (§2) EC50 values were determined with the same application.

HER2 S310F [9] = biological target: T6, HER2 S310F (Homo sapiens, UniProt P04626, S310F); experiment: BaF3 cell proliferation assay, HER2 S310F (Table B); conditions: potency code, 3 days, CellTiterGlo, read-out: HER2 S310F (Activity for Inhibiting HER2)
T6 construct: expressed in transfected cells; host or cells: BaF3 (murine pro-B)

EGFR SVD [10] = biological target: T4, EGFR SVD; experiment: Activity for inhibiting EGFR (Table A), EGFR SVD; conditions: read-out: EGFR SVD, potency code (IC50)
HER2 WT [11] = biological target: T1, HER2 WT; experiment: Activity for inhibiting HER2 (Table B), HER2 WT
HER2 S310F [12] = biological target: T6, HER2 S310F; experiment: Activity for inhibiting HER2 (Table B), HER2 S310F; conditions: read-out: HER2 S310F, potency code (IC50)
Procedure: as §2

EGFR WT [13] = biological target: T7, EGFR WT (Homo sapiens, UniProt P00533); experiment: Activity for inhibiting EGFR (Table A), EGFR WT; conditions: read-out: EGFR WT, potency code (IC50)
EGFR WT [14] = biological target: T7, EGFR WT; experiment: BaF3 cell proliferation assay, EGFR WT (Table A); conditions: potency code, 3 days, CellTiterGlo, read-out: EGFR WT (Activity for Inhibiting EGFR)
Procedure, shortened: as §1

[15] = Table B, read-out: HER2 WT, potency code (IC50)
[16] = text lists of compounds, read-out: IC50 value for inhibiting wild-type HER2

T1 sequence (P04626 23-1255): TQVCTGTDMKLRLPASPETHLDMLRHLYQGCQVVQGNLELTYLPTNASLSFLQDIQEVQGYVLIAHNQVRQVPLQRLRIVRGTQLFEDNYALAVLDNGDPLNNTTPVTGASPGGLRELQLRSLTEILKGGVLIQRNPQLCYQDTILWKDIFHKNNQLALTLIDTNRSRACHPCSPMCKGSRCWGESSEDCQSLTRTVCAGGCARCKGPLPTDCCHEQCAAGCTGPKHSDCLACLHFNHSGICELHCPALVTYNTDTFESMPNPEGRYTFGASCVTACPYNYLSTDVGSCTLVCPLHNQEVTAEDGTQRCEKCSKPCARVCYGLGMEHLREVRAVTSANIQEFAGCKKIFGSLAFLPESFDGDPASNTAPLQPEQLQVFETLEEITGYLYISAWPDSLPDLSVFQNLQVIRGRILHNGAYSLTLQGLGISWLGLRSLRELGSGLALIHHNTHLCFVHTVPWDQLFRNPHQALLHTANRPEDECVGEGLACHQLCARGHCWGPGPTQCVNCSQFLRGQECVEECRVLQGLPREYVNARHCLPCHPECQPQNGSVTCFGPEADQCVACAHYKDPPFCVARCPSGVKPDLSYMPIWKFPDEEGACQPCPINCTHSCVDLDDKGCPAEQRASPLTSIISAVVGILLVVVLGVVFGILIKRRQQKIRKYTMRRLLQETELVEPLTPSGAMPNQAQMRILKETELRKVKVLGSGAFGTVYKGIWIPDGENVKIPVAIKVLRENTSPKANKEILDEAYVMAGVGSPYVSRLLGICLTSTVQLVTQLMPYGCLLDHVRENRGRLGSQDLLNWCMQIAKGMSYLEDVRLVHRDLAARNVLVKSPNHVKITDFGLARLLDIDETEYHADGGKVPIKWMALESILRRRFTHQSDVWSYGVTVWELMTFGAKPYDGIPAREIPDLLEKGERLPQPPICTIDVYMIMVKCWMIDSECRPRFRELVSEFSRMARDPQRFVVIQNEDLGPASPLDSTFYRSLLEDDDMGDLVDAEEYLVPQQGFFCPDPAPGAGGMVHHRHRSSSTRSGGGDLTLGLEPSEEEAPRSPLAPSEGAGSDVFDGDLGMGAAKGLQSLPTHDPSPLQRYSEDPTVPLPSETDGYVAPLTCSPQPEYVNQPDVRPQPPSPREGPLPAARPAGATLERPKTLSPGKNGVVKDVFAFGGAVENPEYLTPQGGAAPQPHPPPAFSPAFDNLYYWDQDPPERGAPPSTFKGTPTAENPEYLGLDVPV
T4 sequence (P00533 with tags, fused parts or gaps DUP768-770): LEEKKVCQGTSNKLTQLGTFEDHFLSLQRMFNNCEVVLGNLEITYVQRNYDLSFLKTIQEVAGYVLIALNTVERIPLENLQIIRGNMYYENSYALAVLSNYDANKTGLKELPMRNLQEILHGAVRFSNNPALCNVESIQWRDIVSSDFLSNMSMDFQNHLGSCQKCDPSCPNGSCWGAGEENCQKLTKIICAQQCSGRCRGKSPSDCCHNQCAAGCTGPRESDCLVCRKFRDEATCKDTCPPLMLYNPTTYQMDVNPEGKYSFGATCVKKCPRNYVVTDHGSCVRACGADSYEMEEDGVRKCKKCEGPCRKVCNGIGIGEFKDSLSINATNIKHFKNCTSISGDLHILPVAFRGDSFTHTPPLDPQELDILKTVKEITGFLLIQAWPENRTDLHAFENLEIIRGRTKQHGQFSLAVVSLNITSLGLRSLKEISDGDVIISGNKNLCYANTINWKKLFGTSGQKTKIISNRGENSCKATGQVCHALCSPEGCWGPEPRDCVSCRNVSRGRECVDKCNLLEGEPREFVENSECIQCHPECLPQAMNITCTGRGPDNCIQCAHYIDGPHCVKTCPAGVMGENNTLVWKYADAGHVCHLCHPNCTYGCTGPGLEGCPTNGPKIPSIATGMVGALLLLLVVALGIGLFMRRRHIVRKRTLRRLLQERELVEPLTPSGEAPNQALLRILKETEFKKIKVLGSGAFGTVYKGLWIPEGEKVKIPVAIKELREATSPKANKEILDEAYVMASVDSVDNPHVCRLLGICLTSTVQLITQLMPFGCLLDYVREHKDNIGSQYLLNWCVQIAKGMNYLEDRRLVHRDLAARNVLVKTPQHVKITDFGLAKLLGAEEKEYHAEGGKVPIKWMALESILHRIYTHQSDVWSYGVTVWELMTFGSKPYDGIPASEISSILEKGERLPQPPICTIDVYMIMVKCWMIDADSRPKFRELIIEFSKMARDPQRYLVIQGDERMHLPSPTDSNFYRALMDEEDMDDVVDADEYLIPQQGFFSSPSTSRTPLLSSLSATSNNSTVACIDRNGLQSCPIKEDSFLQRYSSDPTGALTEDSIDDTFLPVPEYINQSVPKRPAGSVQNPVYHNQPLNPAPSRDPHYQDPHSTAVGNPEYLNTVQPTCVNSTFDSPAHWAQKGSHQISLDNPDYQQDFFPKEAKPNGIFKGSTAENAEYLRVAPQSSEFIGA
T3 sequence (P00533 with tags, fused parts or gaps DELINS30-297G): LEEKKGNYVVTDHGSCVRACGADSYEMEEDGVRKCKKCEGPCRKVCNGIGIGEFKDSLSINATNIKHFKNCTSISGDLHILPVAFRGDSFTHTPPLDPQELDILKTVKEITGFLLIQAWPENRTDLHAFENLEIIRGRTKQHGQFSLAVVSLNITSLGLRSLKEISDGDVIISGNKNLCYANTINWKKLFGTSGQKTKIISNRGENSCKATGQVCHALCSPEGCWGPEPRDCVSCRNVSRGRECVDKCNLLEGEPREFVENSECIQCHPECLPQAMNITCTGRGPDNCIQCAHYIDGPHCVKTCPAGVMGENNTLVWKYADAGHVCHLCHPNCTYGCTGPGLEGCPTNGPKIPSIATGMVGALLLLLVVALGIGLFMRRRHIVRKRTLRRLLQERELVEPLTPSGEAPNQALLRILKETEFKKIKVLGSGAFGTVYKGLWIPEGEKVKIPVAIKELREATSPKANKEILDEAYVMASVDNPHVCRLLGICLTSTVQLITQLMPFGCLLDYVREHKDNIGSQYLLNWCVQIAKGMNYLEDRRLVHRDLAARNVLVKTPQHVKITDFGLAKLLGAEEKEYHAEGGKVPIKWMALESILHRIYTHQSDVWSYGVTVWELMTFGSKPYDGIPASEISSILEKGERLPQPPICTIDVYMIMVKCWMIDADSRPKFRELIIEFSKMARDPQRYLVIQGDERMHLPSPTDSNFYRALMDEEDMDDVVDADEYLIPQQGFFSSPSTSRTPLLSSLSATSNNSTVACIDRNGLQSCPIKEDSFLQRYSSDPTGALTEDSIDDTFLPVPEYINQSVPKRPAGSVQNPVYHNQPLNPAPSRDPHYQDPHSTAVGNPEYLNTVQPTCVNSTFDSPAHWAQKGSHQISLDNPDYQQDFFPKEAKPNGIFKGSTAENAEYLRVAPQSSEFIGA
T7 sequence (P00533 25-1210 N540K): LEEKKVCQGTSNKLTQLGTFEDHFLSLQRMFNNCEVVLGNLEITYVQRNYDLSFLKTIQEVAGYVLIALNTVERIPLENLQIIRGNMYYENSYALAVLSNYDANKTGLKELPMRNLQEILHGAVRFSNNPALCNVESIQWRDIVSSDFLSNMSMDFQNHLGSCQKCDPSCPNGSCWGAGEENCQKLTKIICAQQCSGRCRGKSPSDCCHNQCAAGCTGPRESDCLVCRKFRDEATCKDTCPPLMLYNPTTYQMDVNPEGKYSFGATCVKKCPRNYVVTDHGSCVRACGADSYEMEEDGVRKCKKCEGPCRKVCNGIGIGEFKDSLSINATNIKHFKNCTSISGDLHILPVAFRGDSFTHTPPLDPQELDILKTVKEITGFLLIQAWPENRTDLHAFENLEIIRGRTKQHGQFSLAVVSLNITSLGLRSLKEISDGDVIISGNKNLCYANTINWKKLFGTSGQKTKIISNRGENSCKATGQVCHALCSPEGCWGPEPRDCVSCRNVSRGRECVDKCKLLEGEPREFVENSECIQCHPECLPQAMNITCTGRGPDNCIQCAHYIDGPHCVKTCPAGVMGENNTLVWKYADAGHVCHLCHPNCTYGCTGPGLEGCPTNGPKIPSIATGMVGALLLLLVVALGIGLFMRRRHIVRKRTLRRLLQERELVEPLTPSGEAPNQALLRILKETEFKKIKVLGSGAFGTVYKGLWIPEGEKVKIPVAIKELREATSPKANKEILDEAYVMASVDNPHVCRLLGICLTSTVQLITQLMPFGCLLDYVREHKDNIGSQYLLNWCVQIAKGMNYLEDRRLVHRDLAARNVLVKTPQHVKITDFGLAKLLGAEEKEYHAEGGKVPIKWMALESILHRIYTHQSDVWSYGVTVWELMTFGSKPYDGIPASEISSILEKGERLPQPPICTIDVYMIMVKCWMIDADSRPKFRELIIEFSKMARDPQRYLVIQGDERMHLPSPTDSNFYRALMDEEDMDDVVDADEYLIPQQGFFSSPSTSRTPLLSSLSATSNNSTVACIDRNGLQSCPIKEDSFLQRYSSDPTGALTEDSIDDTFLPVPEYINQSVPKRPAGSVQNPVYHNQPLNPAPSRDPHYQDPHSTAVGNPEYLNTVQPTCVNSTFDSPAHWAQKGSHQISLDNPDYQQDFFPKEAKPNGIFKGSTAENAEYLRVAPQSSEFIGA

Row | SMILES | IC50 (HER2 WT [1]) [nM] | IC50 (EGFR NPH [2]) [nM] | IC50 (EGFR V3 [3]) [nM] | IC50 (EGFR V3 [4]) [nM] | IC50 (EGFR SVD [5]) [nM] | IC50 (HER2 YVMA [6]) [nM] | IC50 (EGFR NPH [7]) [nM] | IC50 (HER2 YVMA [8]) [nM] | IC50 (HER2 S310F [9]) [nM] | IC50 (EGFR SVD [10]) [nM] | IC50 (HER2 WT [11]; [15]) [nM] | IC50 (HER2 WT [11]; [16]) [nM] | IC50 (HER2 S310F [12]) [nM] | IC50 (EGFR WT [13]) [nM] | IC50 (EGFR WT [14]) [nM]
1 | C=CC(=O)Nc1cc2c(Nc3ccc(OCc4ccccn4)c(Cl)c3)ncnc2cc1OCCN(C)C1CCOC1 (stereo not drawn) [compound 41] | 5 to 10 | 50 to 100 | 30 to 50 | 30 to 50 | 30 to 50 | 50 to 100 | 50 to 100 | 50 to 100 | 20 to 30 | 30 to 50 | 5 to 10 | ≤ 10 | 20 to 30 | 500 to 1000 | 500 to 1000
2 | C=CC(=O)Nc1cc2c(Nc3ccc(OCc4ccccn4)c(Cl)c3)ncnc2cc1N1CCN(C)CC1 [compound 42] | 30 to 50 | > 1000 | 50 to 100 | 50 to 100 | 500 to 1000 | 500 to 1000 | > 1000 | 500 to 1000 | 50 to 100 | 500 to 1000 | 30 to 50 | ≤ 50 | 50 to 100 | 500 to 1000 | 500 to 1000
3 | C=CC(=O)Nc1cc2c(Nc3ccc(OCc4ccccn4)c(Cl)c3)ncnc2cc1N1CC2CN(C)CC2C1 (stereo not drawn) [compound 47] | 10 to 20 | 500 to 1000 | 30 to 50 | 30 to 50 | 500 to 1000 | 500 to 1000 | 500 to 1000 | 500 to 1000 | 30 to 50 | 500 to 1000 | 10 to 20 | ≤ 20 | 30 to 50 | 300 to 500 | 300 to 500
4 | C=CC(=O)Nc1cc2c(Nc3ccc(OCc4ccccn4)c(Cl)c3)ncnc2cc1OCCN1CC2COCC2C1 (stereo not drawn) [compound 51] | 5 to 10 | 50 to 100 | 20 to 30 | 20 to 30 | 30 to 50 | 50 to 100 | 50 to 100 | 50 to 100 | 10 to 20 | 30 to 50 | 5 to 10 | ≤ 10 | 10 to 20 | 500 to 1000 | 500 to 1000
5 | C=CC(=O)Nc1cc2c(Nc3ccc(OCc4ccccn4)c(Cl)c3)ncnc2cc1OCCN1CC2(CCO2)C1 [compound 52] | 5 to 10 | 50 to 100 | 20 to 30 | 20 to 30 | 50 to 100 | 100 to 200 | 50 to 100 | 100 to 200 | 20 to 30 | 50 to 100 | 5 to 10 | ≤ 10 | 20 to 30 | 500 to 1000 | 500 to 1000

Results, then the compound that gave them:

Row | IC50 (HER2 WT [1]) [nM] | IC50 (EGFR NPH [2]) [nM] | IC50 (EGFR V3 [3]) [nM] | IC50 (EGFR V3 [4]) [nM] | IC50 (EGFR SVD [5]) [nM] | IC50 (HER2 YVMA [6]) [nM] | IC50 (EGFR NPH [7]) [nM] | IC50 (HER2 YVMA [8]) [nM] | IC50 (HER2 S310F [9]) [nM] | IC50 (EGFR SVD [10]) [nM] | IC50 (HER2 WT [11]; [15]) [nM] | IC50 (HER2 WT [11]; [16]) [nM] | IC50 (HER2 S310F [12]) [nM] | IC50 (EGFR WT [13]) [nM] | IC50 (EGFR WT [14]) [nM] | SMILES
6 | 5 to 10 | 100 to 200 | 10 to 20 | 10 to 20 | 50 to 100 | 100 to 200 | 100 to 200 | 100 to 200 | 20 to 30 | 50 to 100 | 5 to 10 | ≤ 10 | 20 to 30 | > 1000 | > 1000 | C=CC(=O)Nc1cc2c(Nc3ccc(OCc4ccccn4)c(Cl)c3)ncnc2cc1OCC1(N(C)C)CC1 [compound 54]
7 | 20 to 30 | 300 to 500 | 20 to 30 | 20 to 30 | 300 to 500 | 200 to 300 | 300 to 500 | 200 to 300 | 50 to 100 | 300 to 500 | 20 to 30 | ≤ 50 | 50 to 100 | 300 to 500 | 300 to 500 | C=CC(=O)Nc1cc2c(Nc3ccc(OCc4ccccn4)cc3F)ncnc2cc1OCCN1CCOCC1 [compound 56]
8 | 5 to 10 | 50 to 100 | 10 to 20 | 10 to 20 | 30 to 50 | 50 to 100 | 50 to 100 | 50 to 100 | 10 to 20 | 30 to 50 | 5 to 10 | ≤ 10 | 10 to 20 | 500 to 1000 | 500 to 1000 | C=CC(=O)Nc1cc2c(Nc3cc(Cl)c(OCc4ccccn4)cc3F)ncnc2cc1OCCN1CCOCC1 [compound 57]
9 | 5 to 10 | 200 to 300 | 10 to 20 | 10 to 20 | 200 to 300 | 300 to 500 | 200 to 300 | 300 to 500 | 20 to 30 | 200 to 300 | 5 to 10 | ≤ 10 | 20 to 30 | 200 to 300 | 200 to 300 | C=CC(=O)Nc1cc2c(Nc3cc(Cl)c(OCc4ccccn4)cc3F)ncnc2cc1OC1CCN(C)C1 (stereo not drawn) [compound 60]
10 | < 5 | 30 to 50 | 10 to 20 | 10 to 20 | 20 to 30 | 30 to 50 | 30 to 50 | 30 to 50 | 5 to 10 | 20 to 30 | < 5 | ≤ 5 | 5 to 10 | 300 to 500 | 300 to 500 | C=CC(=O)Nc1cc2c(Nc3ccc(OCc4ccccn4)c(Cl)c3)ncnc2cc1OC1CC(N(C)C)C1 (stereo not drawn) [compound 62]
11 | 30 to 50 | 300 to 500 | 50 to 100 | 50 to 100 | 300 to 500 | 300 to 500 | 300 to 500 | 300 to 500 | 50 to 100 | 300 to 500 | 30 to 50 | ≤ 50 | 50 to 100 | > 1000 | > 1000 | C=CC(=O)Nc1cc2c(Nc3ccc(Oc4ccccc4)cc3)ncnc2cc1OCCN1CCOCC1 [compound 63]
